Experiment [1] concerns Bombyx mori. Put plainly: Insecticidal activity against Bombyx mori Shunrei x Shogetu fourth-instar larvae assessed as effect on larval growth at 100 ppm administered in diet relative to untreated control. In kind it is functional, organism-based.
Experiment [2] has as its system Bombyx mori. Put plainly: Insecticidal activity against Bombyx mori Shunrei x Shogetu fourth-instar larvae assessed as incidence of prolongation of 4th ecdysis at 30 ppm administered in diet relative to untreated control. In kind it is functional.
Experiment [3] concerns Bombyx mori. Put plainly: Insecticidal activity against Bombyx mori Shunrei x Shogetu fourth-instar larva assessed as effect on larval growth at 160 ug/larvae upon topial application. Type of experiment: functional, organism-based.
In experiment [4] the test system is Bombyx mori. Put plainly: Insecticidal activity against Bombyx mori Shunrei x Shogetu fourth-instar larva assessed as effect on larval molting at 160 ug/larvae upon topial application. Type of experiment: functional, organism-based.
Experiment [5] concerns Bombyx mori. Put plainly: Insecticidal activity against Bombyx mori Shunrei x Shogetu fourth-instar larvae assessed as induction of delay in 4th ecdysis at 100 ug/larva applied daily through topical route (reference value: 4.3 +/- 0.48 days). In kind it is functional.
Experiment [6] concerns Bombyx mori. Put plainly: Effect on feeding in Bombyx mori Shunrei x Shogetu fourth-instar larvae assessed as change in quantity of excrement at 10 to 30 ppm administered in diet relative to untreated control. Type of experiment: functional, organism-based.
In experiment [7] the test system is Bombyx mori. Put plainly: Insecticidal activity against Bombyx mori Shunrei x Shogetu fourth-instar larvae assessed as induction of delay in 4th ecdysis at 10 to 30 ppm administered in diet relative to untreated control. In kind it is functional.

For eight molecules, Activity and Time results are on record in ChEMBL document CHEMBL3046098, “Effect of tropine derivatives, antimuscarinic agents, on the growth of Bombyx mori larvae” (1998).

Calls of active or inactive are those of the source. No cut-off for these calls is given here.

Consider `O=C(O)CC(c1ccccc1)c1ccccc1`, for which, in the experiment on Bombyx mori [1], the result was inactive.

Take `CN1C2CC[C@@H]1C[C@@H](OC(=O)C(C)(c1ccccc1)c1ccccc1)C2` (single isomer, unassigned): in the experiment with Bombyx mori [2], the Activity worked out at 40%. Besides, the result with Bombyx mori [3], in the experiment on Bombyx mori [4] and in the experiment on Bombyx mori [6] was inactive. In addition, the Time with Bombyx mori [5] was found to be 5.3 days.

Consider `CN1C2CC[C@@H]1C[C@@H](OC(=O)C(C)(C)C)C2` (single isomer, unassigned), for which the result in the experiment with Bombyx mori [3] and in the experiment on Bombyx mori [4] was inactive.

As for `CN1C2CC[C@@H]1C[C@@H](OC(=O)C(c1ccccc1)c1ccccc1)C2` (single isomer, unassigned), the outcome in the experiment with Bombyx mori [3] and in the experiment on Bombyx mori [4] was inactive.

For the molecule `CN1C2CC[C@@H]1C[C@@H](OC(=O)CC(c1ccccc1)c1ccccc1)C2` (single isomer, unassigned), the outcome in the experiment on Bombyx mori [3], with Bombyx mori [4] and with Bombyx mori [1] was inactive.

For `CN1C2CC[C@@H]1C[C@@H](OC(=O)c1ccc(Cl)cc1Cl)C2` (single isomer, unassigned), the result in the experiment on Bombyx mori [3] and in the experiment with Bombyx mori [4] was inactive.

In the case of `CN1C2CC[C@@H]1C[C@@H](OC(=O)c1ccc3ccccc3c1)C2` (single isomer, unassigned), the result with Bombyx mori [3] and in the experiment on Bombyx mori [4] was inactive.

Take `CN1[C@@H]2CC[C@H]1C[C@@H](OC(=O)C(CO)c1ccccc1)C2` (stereo not given in full) [ATROPINE]: the Time worked out at 4.7 days in the experiment with Bombyx mori [5] and 1 days in the experiment with Bombyx mori [7]. Moreover, the result in the experiment on Bombyx mori [6] was inactive.
